Measured values: US20020045231A1, “Catalytic antibodies which hydrolyze primary amides and methods for eliciting such antibodies” (priority 1999, published 2002)
Square brackets hold non-standard residues; d marks the D form. Peptide text beside a SMILES is read from it. * marks the point of attachment. Sta = CC(C)C[C@H](N)[C@@H](O)CC(=O)O; Isovaleryl = CC(C)CC(=O)*

Assays:
13D11 [1] = assay: Inhibition of 13D11-catalyzed hydrolysis by haptens/inhibitors; format: biochemical, mouse
Procedure: Antibody 13D11 (14.5 μM) was re-screened for activity toward 10 (nominally 500 μM) in the absence and presence of 63 μM (RT-2 hapten)(D/L mixture).
Until this point, 13D11 antibody had been purified by Protein A and DEAE chromatography. To determine whether the activity toward 10 was due to a contaminating enzyme, 13D11 was further purified on a Mono Q column (Pharmacia) by FPLC.
Hapten Ki was determined by quantitating the effect of the concentration of 1b or 1c on the velocity of 13D11 hydrolysis of 2b. Rates obtained at fixed antibody and substrate concentrations were fitted to the equation; V1/Vo=(2[Ab]−[l]−Ki′+{([l]+Ki′−2[Ab])^2+4Ki′2[Ab]}^0.5)/4[Ab], where Vi and Vo are, respectively, the velocities in the presence and absence of hapten, 2[Ab] is the total concentration of antibody combining sites, [l] is hapten concentration, Ki′=Ki/(1+[S]/Km), and Ki is the inhibition constant (S. Cha, Biochem. Pharmacol. 1975, 24, 2177).
Control experiments verified that the hydrolytic activity was not due to a contaminating protease. […] (The (L)-hapten spatially corresponds to the (D)-amide substrate.) The inhibition constant, Ki, was determined by an HPLC assay to be 14.0 (±+1.6) μM.
The substrate specificity of 13D11 was more rigorously determined by monitoring its activity towards the dansylated amides 9 and 10, dansylated esters 11 and 12, acetylated amides 13 and 14, and acetylated esters 15 and 16. The esterolytic activity of 13D11 with the dansylated or acetylated esters (45 μM-1.0 mM) was examined at 25° C. in an assay mixture containing MTEN, 0.1 mM EDTA, 0.1 mM PMSF, 0.01% NaN3, and 13D11 (7-14 μM). Aliquots were removed from the incubation mixtures every hour for 4 hours and kept in ice prior to analysis. The dansylated esters were analyzed by TLC while the acetylated esters were subjected to HPLC analysis. […] The observed esterase activity may be due to a trace of a contaminating enzyme in the antibody preparation.
The amidase activity of 13D11 was likewise examined using the same buffer system as the one mentioned above in the presence of 13D11 (17 μM), and the acetylated amide 13 or 14 (0.5-1.0 mM). […] The ability of 13D11 to discriminate between the dansylated amides 9 and 10 was investigated by determining the formation of the hydrolysis product by TLC. The reaction samples containing 150 μM of either amide 9 or 100 30 μM 13D11, with or without hapten 5 (0.5 mM) in the above buffer system were assayed after 5 days of incubation at 25° C. […] Thus, the activity of the catalytic antibody requires the alkyl linker that was present during immunization, and has a stereospecificity opposite of known natural proteolytic enzymes.
An important control in the examination of the catalytic activity of 13D11 IgG molecule is the retention of the haptenic and substrate binding abilities by its Fab′ fragment. Accordingly, the amidase activities of 13D11 (whole IgG molecule) and the 13D11 Fab′ fragment were compared. The reaction mixtures contained MTEN, 1 mM EDTA, 0.1 mM PMSF, 0.01% NaN3, 150 μM dansylated amide 9 or 100 μM 13D11 (IgG) or Fab′, with or without (assumed) hapten 5 (0.5 mM). […] The esterase activity for the Fab′ fragment was also examined in the above buffer system containing 100 μM of either ester 11 or 12, and 7 μM 13D11 (Fab′). Aliquots were removed at various time points and analyzed by TLC. […] The contaminating enzyme in the antibody solution may have been removed during the purification of the Fab′ fragment.

13D11 [2] = assay: Effect of common protease inhibitors on the antibody-catalyzed reaction; format: biochemical, mouse; conditions: inhibitor concentrations sufficient to abolish the respective proteases
Procedure: Extensive purification of 13D11 was carried out. Monoclonal antibodies were purified from ascites using standard procedures of lipid extraction and ammonium sulfate precipitation followed by column chromatography on protein A, DEAE, Mono Q, and finally Alkyl Superose (Pharmacia, Piscataway, N.J.). Finally, nine common inhibitors of known proteases were tested at concentrations sufficient to completely abolish all for their effect on the antibody-catalyzed reaction.

Row | Compound | effect on amidolytic activity of 13D11 (13D11 [2]) | other results
1 | O=S(=O)(O)CCNC1CCCCC1 [CHES] |  | effect of buffer on hydrolysis of 10 by 13D11 (13D11 [1]; CHES buffer tried as an alternative to Tris): inhibit the hydrolysis
2 | CC(=O)NCCCCCC(=O)NC(Cc1ccccc1)P(C)(=O)O (centres unmarked) [Compound 5] |  | Ki (13D11 [1]; 13D11 hydrolysis of 10, HPLC assay, read-out: inhibition constant, Ki): 14 µM; inhibition of esterase activity toward 11 in the 13D11 preparation (13D11 [1]; 25° C., MTEN): not inhibited; inhibition of 13D11 amidase activity toward 10 (13D11 [1]; hapten 5 0.5 mM, 5 days at 25° C., TLC): inhibition of its amidase activity; inhibition of amidase activities of 13D11 IgG and Fab′ (13D11 [1]; hapten 5 0.5 mM, dansylated amide 10): inhibited; inhibition of 13D11 by hapten enantiomers (13D11 [1]; hydrolysis of 10): inhibited 13D11
3 | CC(C)C[C@H](NC(=O)[C@H]1O[C@@H]1C(=O)O)C(=O)NCCCCN=C(N)N [Compound E-64] | Partial inhibition | 
4 | O=C(O)CN(CCN(CC(=O)O)CC(=O)O)CC(=O)O [EDTA] | essentially unaffected | 
5 | O=S(=O)(F)Cc1ccccc1 [PMSF] | essentially unaffected | 
6 | CC(C)C[C@H](NC(=O)[C@@H](O)[C@H](N)Cc1ccccc1)C(=O)O [bestatin] | Partial inhibition | 
7 | CC(=O)N[C@@H](CC(C)C)C(=O)N[C@@H](CC(C)C)C(=O)N[C@H](C=O)CCCNC(=N)N [leupeptin] | essentially unaffected | 
8 | CC(C)CC(=O)N[C@H](C(=O)N[C@H](C(=O)N[C@@H](CC(C)C)[C@@H](O)CC(=O)N[C@@H](C)C(=O)N[C@@H](CC(C)C)[C@@H](O)CC(=O)O)C(C)C)C(C)C [pepstatin] (Isovaleryl-VV[Sta]A[Sta]-OH) | Partial inhibition | 
9 | CC(C)C[C@H](NP(=O)(O)O[C@@H]1O[C@@H](C)[C@H](O)[C@@H](O)[C@H]1O)C(=O)N[C@@H](Cc1c[nH]c2ccccc12)C(=O)O [phosphoramidon] | essentially unaffected | 
10 | aprotinin | essentially unaffected | 
